Results taken from patent publication US20250179029A1, “DEUTERATED RETINOIDAL COMPOUNDS AND SYNTHESIS AND USES THEREOF” (UNIVERSITY OF MARYLAND, BALTIMORE, priority 2022, published 2025).
Like-named read-outs stand apart in the source and are kept apart here.

Assays:
[1] = Plasma pharmacokinetics after single oral dose in female CD-1 mice; type: in vivo; details: for AUC(0-inf) / Tmax / MRT (mean residence time) / T1/2 (elimination half-life) / Cmax / overall Rank by Total Score: single p.o. dose 10 mg/kg, female CD-1 mice; for AUC(0-inf) / Tmax / MRT (mean residence time) / T1/2 (elimination half-life) / Cmax: plasma; for Cmax: mean of three mice; for clearance from systemic circulation (plasma concentration versus time profile) / systemic exposure: single PO dosing, mice, FIGS. 12A-12C
Method: The PK study was performed by the Certified Research Organization (CRO), Aragen Life Sciences Private Limited (Aragen), Hyderabad, India. All procedures of the present study were in accordance with the guidelines provided by the Committee for the Purpose of Control and Supervision of Experiments on Animals (CPCSEA) as published in The Gazette of India, Jan. 7, 2010. CPCSEA renewal number for institute is 1125/PO/Rc/S/CPCSEA on 13Feb. 2014. Institutional Animal Ethics Committee (IAEC) approval has been taken to initiate the study (IAEC Approval Number: B-011A). The details are presented in the Supplementary Materials.
To minimize the number of mice used in the PK study using a validated LC/MS/MS analysis, both individual (discrete) (set #1: Compound 5, EM=463.2937 and set #2: […], EM=463.2937) and cassette (set #3: Compounds 2, 3, and 7; EMs=459.2686, 462.2874 and 466.3125, respectively, and set #4: Compounds 4, 8, and 9; EMs=460.2749, 464.2999 and 467.3188, respectively) dosing were used.^59,66 The four sets studied were dictated by the exact molecular masses of the compounds as indicated above and in FIG. 3.
The plasma PK profiles were obtained after single oral (PO) dosing of the compounds in mice.
In Table 2, data are presented as the mean of values obtained from three female CD-1 mice. Cmax is the maximum observed plasma concentration. Tmax is the time to maximum concentration. T1/2 is the elimination half-life. AUC represents AUC (0-∞), which is the area under the concentration-time curve from time of dosing extrapolated to infinity. MRT refers to mean residence time. The number in parentheses indicate the rank order from best (1) to worst (8).

SKBR3 = assay: MTT antiproliferative assay, SKBR3 non-TNBC cells; type: cell-based; details: Homo sapiens, SK-BR-3, mean of three independent experiments
Method: (§1) Compounds 2, 4, 8 and 9, as well as paclitaxel (PTX) were evaluated over a range of concentrations to examine their antiproliferative activities against two non-TNBC cell lines, MCF7 and SKBR3using the well-established 3-(4,5-dimethylthiazolyl-2)-2,5-diphenyl tetrazolium bromide (MTT) assay.^48,55,56 The parent non-deuterated VNLG-152R (Compound 2) was used as the positive control.
(§2) As presented in Table 1 below, the GI50 values of the deuterated Compounds 4, 8 and 9 against the MCF7 cell are identical to the GI50 value of the parent protio VNLG-152R (Compound 2). In contrast, the SKBR3 cell appears to be more sensitive to the deuterated compounds compared to the parent non-deuterated VNLG-152R (Compound 2). The reason for this difference is not understood at this time. The applicant hypothesizes that the enhanced diffusion of these deuterated molecules across the cell membrane of this cell line may result in enhanced intracellular concentrations and inhibition of its proliferation. Each data point is a mean of replicates from three independent experiments.

[2] = system: MDA-MB-231 tumor xenograft; assay: Anti-tumor activity in MDA-MB-231 xenograft mouse model; type: in vivo; details: 20 mg/kg, PO, 5 days/week, 16 days
Method: (§3) FIGS. 13A-13D show the anti-tumor activity of VNLG-152R, Compound 4, Compound 8, and Compound 9 in xenograft mouse models. […] In FIGS. 13B and 13D, *=p<0.0001.
(§4) After confirming the improved pharmacokinetic parameters of deuterated compounds 4, 8, and 9, the anti-tumor activity of these compounds was tested in xenograft models of MDA-MB-231 and MDA-MB-468. In both models, the mice for each group were treated with either vehicle (control) or the compounds, each at 20 mg/kg, PO, 5 days/week.

[3] = system: MDA-MB-468 tumor xenograft; assay: Anti-tumor activity in MDA-MB-468 xenograft mouse model; type: in vivo; details: 20 mg/kg, PO, 5 days/week, 16 days
Method: as §3, §4

MCF7 = assay: MTT antiproliferative assay, MCF7 non-TNBC cells; type: cell-based; details: Homo sapiens, mean of three independent experiments
Method: as §1, §2

[4] = system: androgen-sensitive and castration-resistant human prostate cancer cells; details: androgen-sensitive and castration-resistant human prostate cancer cells in vitro; cited from earlier work

| Compound | AUC(0-inf) ([1]; mouse, po) [ng·h/mL] | MRT (mean residence time) [1] [h] | T1/2 (elimination half-life) [1] [h] | Cmax [1] [ng/mL] | Tmax [1] [h] | GI50 (SKBR3) [nM] | GI50 (MCF7) [nM] | other results |
| --- | --- | --- | --- | --- | --- | --- | --- | --- |
| [2H]c1nc([2H])n(C2CCC(C)(C)C(/C=C/C(C)=C/C=C/C(C)=C/C(=O)Nc3ccc(F)cc3)=C2C)c1[2H] (racemic) [Compound 3, (±) 4-(Imidazolyl-2″3″5″-D3)-4-(H)-(4′-fluoro(phenyl))-(E)-retinamide] | 1740 | 3.57 | 8.39 | 151.17 | 1.33 |  |  |  |
| [2H]c1nc([2H])n(C2([2H])CCC(C)(C)C(/C=C/C(C)=C/C=C/C(C)=C/C(=O)Nc3ccc(F)cc3)=C2C)c1[2H] (racemic) [Compound 5, (±) 4-(Imidazolyl-2″3″5″-D3)-4-(D)-(4′-fluoro(phenyl))-(E)-retinamide] | 2700 | 5.49 | 4.27 | 500.72 | 0.67 |  |  |  |
| CC1=C(/C=C/C(C)=C/C=C/C(C)=C/C(=O)Nc2ccccc2O)C(C)(C)CCC1n1ccnc1 (centres unmarked) [VNLG-147, (2E,4E,6E,8E)-N-(2-hydroxyphenyl)-9-(3-imidazolyl-2,6,6-trimethylcyclohex-1-enyl)-3,7-dimethylnona-2,4,6,8-tetraenamide] |  |  |  |  |  |  |  | anti-proliferative and anti-metastatic activities [4]: potent |
| CC1=C(/C=C/C(C)=C/C=C/C(C)=C/C(=O)Nc2ccccc2)C(C)(C)CCC1n1ccnc1 (centres unmarked) [VNLG-153, (2E,4E,6E,8E)-9-(3-imidazolyl-2,6,6-trimethylcyclohex-1-enyl)-3,7-dimethyl-N-phenylnona-2,4,6,8-tetraenamide] |  |  |  |  |  |  |  | anti-proliferative and anti-metastatic activities [4]: potent |

Second part, led by results:

| AUC(0-inf) ([1]; mouse, po) [ng·h/mL] | MRT (mean residence time) [1] [h] | T1/2 (elimination half-life) [1] [h] | Cmax [1] [ng/mL] | Tmax [1] [h] | GI50 (SKBR3) [nM] | GI50 (MCF7) [nM] | Compound | other results |
| --- | --- | --- | --- | --- | --- | --- | --- | --- |
| 1730 | 4.63 | 4.90 | 272.72 |  |  |  | [2H]c1c([2H])c(NC(=O)/C=C(C)/C=C/C=C(C)/C=C/C2=C(C)C(n3ccnc3)CCC2(C)C)c([2H])c([2H])c1F (racemic) [Compound 6, (±) 4-Imidazolyl-4(H)-(4′-fluoro(phenyl-2′3′5′6′-D4))-(E)-retinamide] | Tmax ([1]; mouse, po, read-out: Tmax): 0.83 h |
| 15500 | 8.48 | 10.20 | 1361.22 | 0.75 | 110 ± 200 | 330 ± 140 | [2H]c1c([2H])c(NC(=O)/C=C(C)/C=C/C=C(C)/C=C/C2=C(C)C([2H])(n3ccnc3)CCC2(C)C)c([2H])c([2H])c1F (racemic) [Compound 8, (±) 4-(Imidazolyl)-4-(D)-(4′-fluoro(phenyl-2′3′5′6′-D4))-(E)-retinamide] | reduction of tumor growth [2]: 95%; reduction of tumor growth [3]: 93%; clearance from systemic circulation (plasma concentration versus time profile) [1]: could not be detected after 8 hours; systemic exposure [1]: very low systemic exposures; overall Rank by Total Score [1]: 3rd |
|  | 9.06 | 12.05 |  |  |  |  | CC1=C(/C=C/C(C)=C/C=C/C(C)=C/C(=O)Nc2ccc(F)cc2)C(C)(C)CCC1=O [Compound 16, 4-Oxo-(4′-fluoro(phenyl))-(E)-retinamide] |  |
| 2060 | 2.89 | 4.34 | 454.97 | 0.83 |  |  | [2H]c1nc([2H])n(C2CCC(C)(C)C(/C=C/C(C)=C/C=C/C(C)=C/C(=O)Nc3c([2H])c([2H])c(F)c([2H])c3[2H])=C2C)c1[2H] (racemic) [Compound 7, (±) 4-(Imidazolyl-2″3″5″-D3)-4-(H)-(4′-fluoro(phenyl-2′3′5′6′-D4))-(E)-retinamide] |  |
|  |  |  |  |  | 60 ± 120 | 60 ± 120 | CC(=O)O[C@H]1C(=O)[C@@]2(C)[C@H]([C@H](OC(=O)c3ccccc3)[C@]3(O)C[C@H](OC(=O)[C@H](O)[C@@H](NC(=O)c4ccccc4)c4ccccc4)C(C)=C1C3(C)C)[C@]1(OC(C)=O)CO[C@@H]1C[C@@H]2O [Paclitaxel, paclitaxel, reference compound] |  |
| 17600 | 9.06 | 12.05 | 1031.65 | 2.50 | 140 ± 230 | 230 ± 250 | [2H]C1(n2ccnc2)CCC(C)(C)C(/C=C/C(C)=C/C=C/C(C)=C/C(=O)Nc2ccc(F)cc2)=C1C (racemic) [Compound 4, (±) 4-(Imidazolyl)-4-(D)-(4′-fluoro(phenyl))-(E)-retinamide] | reduction of tumor growth [2]: 95%; tumor regression [3]: 6.6%; clearance from systemic circulation (plasma concentration versus time profile) [1]: could not be detected after 8 hours; systemic exposure [1]: very low systemic exposures; overall Rank by Total Score [1]: 2nd |
| 22600 | 8.92 | 10.28 | 1615.81 | 2.67 | 100 ± 140 | 220 ± 130 | [2H]c1nc([2H])n(C2([2H])CCC(C)(C)C(/C=C/C(C)=C/C=C/C(C)=C/C(=O)Nc3c([2H])c([2H])c(F)c([2H])c3[2H])=C2C)c1[2H] (racemic) [Compound 9, (±) 4-(Imidazolyl-2″3″5″-D3)-4-(D)-(4′-fluoro(phenyl-2′3′5′6′-D4))-(E)-retinamide] | tumor regression [2]: 67%; tumor regression [3]: 37% |
